IC50 data for 7 molecules are collected here from US12291519B2, “2-hydroxycycloalkane-1-carbamoyl” (Idorsia Pharmaceuticals Ltd, priority 2019, dated 2025).

One assay concerns the target human Gal-3 (hGal-3) (Homo sapiens (Human), UniProt P17931). Put plainly: Competitive binding assay: biotinylated hGal-3 binding to microplate-adsorbed asialofetuin (ASF). As to conditions: Activity on hGal-3; binding of biotinylated hGal-3 to ASF-coated plates; mean values. The method, then:
(§1) Evaluation of Compound Inhibitory Activity (IC50)
The inhibitory activity of compounds is determined in competitive binding assays. […] Alternatively, and preferably, a human Gal-1 version in which all six cysteines are substituted by serines may be used.
Briefly, compounds are serially diluted in DMSO (working dilutions).
Plates are incubated for 3 hours at 4° C. then washed with cold assay buffer (3×50 uL), incubated for 1 hour with 25 μL/well of a streptavidin-peroxidases solution (diluted in assay buffer to 80 ng/mL) at 4° C., followed by further washing steps with assay buffer (3×50 uL). Finally, 25 μL/well of ABTS substrate is added.
(§2) The calculated IC50 values may fluctuate depending on the daily assay performance. Fluctuations of this kind are known to those skilled in the art. IC50 values from several measurements are given as mean values.

The next assay deals with human Gal-1 (hGal-1). Briefly: Competitive binding assay: biotinylated hGal-1 binding to microplate-adsorbed asialofetuin (ASF). Conditions: Activity on hGal-1; binding of biotinylated hGal-1 to ASF-coated plates; mean values. The protocol:
as §1
The inhibitory activity of compounds is determined in competitive binding assays. This spectrophotometric assay measures the binding of biotinylated human Gal-3 (hGal-3) or human Gal-1 (hGAl-1), respectively, to a microplate-adsorbed glycoprotein, asialofetuin (ASF) (Proc Natl Acad Sci USA. 2013 Mar. 26; 110(13):5052-7.). Alternatively, and preferably, a human Gal-1 version in which all six cysteines are substituted by serines may be used.
Briefly, compounds are serially diluted in DMSO (working dilutions). ASF-coated 384 well pates are supplemented with 22.8 μL/well of biotinylated hGal-3 or hGal-1 in assay buffer (i.e. 300-1000 ng/mL biotinylated hGal-3 or hGal-1) to which 1.2 μL of compound working dilutions are added and mixed.
Plates are incubated for 3 hours at 4° C. then washed with cold assay buffer (3×50 uL), incubated for 1 hour with 25 μL/well of a streptavidin-peroxidases solution (diluted in assay buffer to 80 ng/mL) at 4° C., followed by further washing steps with assay buffer (3×50 uL). Finally, 25 μL/well of ABTS substrate is added. OD (410 nm) is recorded after 30 to 45 min and IC50 values are calculated.
as §2

SMILES strings stand for the structures.

Chain of human Gal-1 (hGal-1) (P09382 2-135 limits assumed): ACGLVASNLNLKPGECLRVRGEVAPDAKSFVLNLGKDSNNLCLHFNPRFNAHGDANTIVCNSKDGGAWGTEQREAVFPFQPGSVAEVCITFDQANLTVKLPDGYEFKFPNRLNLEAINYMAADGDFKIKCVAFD
Chain of human Gal-3 (hGal-3) (P17931 whole entry): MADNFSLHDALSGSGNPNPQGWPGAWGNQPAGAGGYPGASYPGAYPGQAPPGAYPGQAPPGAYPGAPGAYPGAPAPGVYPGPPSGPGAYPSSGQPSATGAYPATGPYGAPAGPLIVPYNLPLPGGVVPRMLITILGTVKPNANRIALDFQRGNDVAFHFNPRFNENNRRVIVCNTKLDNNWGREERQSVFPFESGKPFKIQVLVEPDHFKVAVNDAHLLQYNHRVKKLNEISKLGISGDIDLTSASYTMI

The IC50 is the point on the concentration scale where inhibition reaches its midpoint. A higher IC50 goes with weaker potency in that assay. As to `CO[C@@H]1[C@@H](n2cc(-c3cc(F)c(F)c(F)c3)nn2)[C@@H](O)[C@@H](CO)O[C@H]1C(=O)N(Cc1scnc1C)[C@H]1CCCC[C@@H]1O` [Example 36, (2R,3R,4S,5R,6R)-5-hydroxy-N-((1S,2S)-2-hydroxycyclohexyl)-6-(hydroxymethyl)-3-methoxy-N-((4-methylthiazol-5-yl)methyl)-4-(4-(3,4,5-trifluorophenyl)-1H-1,2,3-triazol-1-yl)tetrahydro-2H-pyran-2-carboxamide], the 50% inhibitory concentration (IC50) on human Gal-3 (hGal-3) was found to be 231 nM; on human Gal-1 (hGal-1), 1.03 µM.

With `CO[C@@H]1[C@@H](n2cc(-c3cc(F)c(F)c(F)c3)nn2)[C@@H](O)[C@@H](CO)O[C@H]1C(=O)N(Cc1nccn1C)[C@H]1CCCC[C@@H]1O` [Example 37, (2R,3R,4S,5R,6R)-5-hydroxy-N-((1S,2S)-2-hydroxycyclohexyl)-6-(hydroxymethyl)-3-methoxy-N-((1-methyl-1H-imidazol-2-yl)methyl)-4-(4-(3,4,5-trifluorophenyl)-1H-1,2,3-triazol-1-yl)tetrahydro-2H-pyran-2-carboxamide], the concentration for half-maximal inhibition (IC50) amounted to 337 nM on human Gal-3 (hGal-3) and 5.77 µM at human Gal-1 (hGal-1).

On to `CO[C@@H]1[C@@H](n2cc(-c3cc(F)c(F)c(F)c3)nn2)[C@@H](O)[C@@H](CO)O[C@H]1C(=O)N(Cc1ccsc1C)[C@H]1CCCC[C@@H]1O` [Example 38, (2R,3R,4S,5R,6R)-5-hydroxy-N-((1S,2S)-2-hydroxycyclohexyl)-6-(hydroxymethyl)-3-methoxy-N-((2-methylthiophen-3-yl)methyl)-4-(4-(3,4,5-trifluorophenyl)-1H-1,2,3-triazol-1-yl)tetrahydro-2H-pyran-2-carboxamide], for which the results for the IC50 on human Gal-3 (hGal-3) and on human Gal-1 (hGal-1) were 207 nM and 1.68 µM, respectively.

Turning to `COc1ccccc1CN(C(=O)[C@@H]1O[C@H](CO)[C@H](O)[C@H](n2cc(-c3cc(F)c(F)c(F)c3)nn2)[C@H]1OC)[C@H]1CCCC[C@@H]1O` [Example 39, (2R,3R,4S,5R,6R)-5-hydroxy-N-((1S,2S)-2-hydroxycyclohexyl)-6-(hydroxymethyl)-3-methoxy-N-(2-methoxybenzyl)-4-(4-(3,4,5-trifluorophenyl)-1H-1,2,3-triazol-1-yl)tetrahydro-2H-pyran-2-carboxamide], the IC50 on human Gal-3 (hGal-3) is 224 nM; on human Gal-1 (hGal-1) it was 2.96 µM.

`COc1cccc(OC)c1CN(C(=O)[C@@H]1O[C@H](CO)[C@H](O)[C@H](n2cc(-c3cc(F)c(F)c(F)c3)nn2)[C@H]1OC)[C@H]1CCCC[C@@H]1O` [Example 40, (2R,3R,4S,5R,6R)-N-(2,6-dimethoxybenzyl)-5-hydroxy-N-((1S,2S)-2-hydroxycyclohexyl)-6-(hydroxymethyl)-3-methoxy-4-(4-(3,4,5-trifluorophenyl)-1H-1,2,3-triazol-1-yl)tetrahydro-2H-pyran-2-carboxamide]: the concentration for half-maximal inhibition (IC50) at human Gal-3 (hGal-3) came out at 199 nM; on human Gal-1 (hGal-1) it was 4.67 µM.

In the case of `Cn1ccnc1CN(C(=O)[C@@H]1O[C@H](CO)[C@H](O)[C@H](n2cc(-c3cc(F)c(F)c(F)c3)nn2)[C@H]1O)[C@H]1CCCC[C@@H]1O` [Example 41, (2R,3R,4S,5R,6R)-3,5-dihydroxy-N-((1S,2S)-2-hydroxycyclohexyl)-6-(hydroxymethyl)-N-((1-methyl-1H-imidazol-2-yl)methyl)-4-(4-(3,4,5-trifluorophenyl)-1H-1,2,3-triazol-1-yl)tetrahydro-2H-pyran-2-carboxamide], the figures for the IC50 on human Gal-3 (hGal-3) and on human Gal-1 (hGal-1) were 464 nM and 12.3 µM, respectively.

As for `CC(=O)O[C@@H]1[C@@H](n2cc(-c3cc(F)c(F)c(F)c3)nn2)[C@@H](O)[C@@H](CO)O[C@H]1C(=O)N(Cc1nccn1C)[C@H]1CCCC[C@@H]1O` [Example 42], the IC50 amounted to 212 nM on human Gal-3 (hGal-3) and 34.5 µM on human Gal-1 (hGal-1).
